Assay results reported in ChEMBL document CHEMBL1152321, “Recent advances in the chemistry and biology of new generation taxoids” (J Nat Prod, 2009).

What was measured:
[1] = Cytotoxicity against P-glycoprotein deficient wild type human LCC-6 cells after 72 hrs; type: functional, cell-based; conditions: LCC-6, 72 h
[2] = tested on: MCF7; experiment: Resistance factor, ratio of IC50 for human MCF7 cells expressing P-glycoprotein to IC50 for P-glycoprotein deficient wild type human MCF7 cells; type: functional
[3] = tested on: MCF7; experiment: Cytotoxicity against human MCF7 cells expressing P-glycoprotein after 72 hrs; type: functional, cell-based; conditions: MCF7, 72 h
[4] = Resistance factor, ratio of IC50 for human LCC-6 cells expressing P-glycoprotein to IC50 for P-glycoprotein deficient wild type human LCC-6 cells; type: functional; set-up: reference not given here
[5] = tested on: NCI-H460; experiment: Cytotoxicity against human H460 cells after 72 hrs; type: functional, cell-based; conditions: NCI-H460, 72 h
[6] = Cytotoxicity against human LCC-6 cells expressing P-glycoprotein after 72 hrs; type: functional, cell-based; conditions: LCC-6, 72 h
[7] = tested on: HT-29; experiment: Cytotoxicity against human HT-29 cells after 72 hrs; type: functional, cell-based; conditions: HT-29, 72 h
[8] = tested on: MCF7; experiment: Cytotoxicity against P-glycoprotein deficient wild type human MCF7 cells after 72 hrs; type: functional, cell-based; conditions: MCF7, 72 h

Row | SMILES | IC50 [1] | Ratio [2] | IC50 [3] | Ratio [4] | IC50 [5] | IC50 [6] | IC50 [7] | IC50 [8]
1 | COc1cccc(C(=O)O[C@H]2[C@@H]3[C@]4(OC(C)=O)CO[C@@H]4C[C@H](O)[C@@]3(C)C(=O)[C@H](OC(=O)N(C)C)C3=C(C)[C@@H](OC(=O)[C@H](O)[C@@H](NC(=O)OC(C)(C)C)C(F)(F)F)C[C@]2(O)C3(C)C)c1 | 0.28 nM | 3.2 | 1.84 nM | 16 | 0.35 nM | 4.48 nM | 0.68 nM | 0.57 nM
2 | COC(=O)O[C@H]1C(=O)[C@@]2(C)[C@H]([C@H](OC(=O)c3cccc(F)c3)[C@]3(O)C[C@H](OC(=O)[C@H](O)[C@@H](NC(=O)OC(C)(C)C)C(F)(F)F)C(C)=C1C3(C)C)[C@]1(OC(C)=O)CO[C@@H]1C[C@@H]2O | 0.39 nM | 16 | 4.88 nM | 15 | 0.61 nM | 5.81 nM | 0.85 nM | 0.31 nM
3 | COC(=O)O[C@H]1C(=O)[C@@]2(C)[C@H]([C@H](OC(=O)c3cccc(N=[N+]=[N-])c3)[C@]3(O)C[C@H](OC(=O)[C@H](O)[C@@H](NC(=O)OC(C)(C)C)C(F)(F)F)C(C)=C1C3(C)C)[C@]1(OC(C)=O)CO[C@@H]1C[C@@H]2O | 1.09 nM | 6.2 | 2.92 nM | 3.7 | 0.2 nM | 4 nM | 0.4 nM | 0.47 nM
4 | COC(=O)O[C@H]1C(=O)[C@@]2(C)[C@H]([C@H](OC(=O)c3cccc(OC)c3)[C@]3(O)C[C@H](OC(=O)[C@H](O)[C@@H](NC(=O)OC(C)(C)C)C(F)(F)F)C(C)=C1C3(C)C)[C@]1(OC(C)=O)CO[C@@H]1C[C@@H]2O | 0.27 nM | 17 | 2.88 nM | 15 | 0.38 nM | 3.99 nM | 0.53 nM | 0.17 nM
5 | COC(=O)O[C@H]1C(=O)[C@@]2(C)[C@H]([C@H](OC(=O)c3cccc(F)c3)[C@]3(O)C[C@H](OC(=O)[C@H](O)[C@@H](NC(=O)OC(C)(C)C)C(F)F)C(C)=C1C3(C)C)[C@]1(OC(C)=O)CO[C@@H]1C[C@@H]2O | 0.86 nM | 19 | 11.4 nM | 15 | 0.3 nM | 12.6 nM | 0.43 nM | 0.59 nM
6 | CC(=O)O[C@H]1C(=O)[C@@]2(C)[C@H]([C@H](OC(=O)c3cccc(F)c3)[C@]3(O)C[C@H](OC(=O)[C@H](O)[C@@H](NC(=O)OC(C)(C)C)C(F)(F)F)C(C)=C1C3(C)C)[C@]1(OC(C)=O)CO[C@@H]1C[C@@H]2O | 0.38 nM | 13 | 5.58 nM | 16 | 0.49 nM | 5.93 nM | 1.11 nM | 0.45 nM
7 | CC(=O)O[C@@]12CO[C@@H]1C[C@H](O)[C@@]1(C)C(=O)[C@H](OC(=O)N(C)C)C3=C(C)[C@@H](OC(=O)[C@H](O)[C@@H](NC(=O)OC(C)(C)C)C(F)F)C[C@@](O)([C@@H](OC(=O)c4cccc(N=[N+]=[N-])c4)[C@H]21)C3(C)C | 0.29 nM | 3.9 | 1.44 nM | 5.8 | 0.52 nM | 1.69 nM | 0.4 nM | 0.37 nM
8 | CC(=O)O[C@@]12CO[C@@H]1C[C@H](O)[C@@]1(C)C(=O)[C@H](OC(=O)N(C)C)C3=C(C)[C@@H](OC(=O)[C@H](O)[C@@H](NC(=O)OC(C)(C)C)C(F)(F)F)C[C@@](O)([C@@H](OC(=O)c4cccc(N=[N+]=[N-])c4)[C@H]21)C3(C)C | 1.27 nM | 5.6 | 2.61 nM | 2.8 | 0.3 nM | 3.52 nM | 0.5 nM | 0.47 nM
